In US12630563B2, “Macrocyclic RIP2-kinase inhibitors” (Oncodesign S.A., priority 2020, dated 2026):

What follows are compounds tested against T1, recombinant hRIPK2 protein (kinase domain aa 1-299-His-tagged) (Homo sapiens, UniProt O43353) (assay: RIPK2 AlphaLISA assay (displacement of bead-bound CZC-8004 from hRIPK2)). Settings: recombinant hRIPK2 kinase domain 10 nM, 2 h at 23° C.
T1 construct: kinase domain aa 1-299-His-tagged; purchased Life Technologies PR7829A
Assay type: binding
Description: RIPK2 AlphaLISA® Assay (Amplified Luminescent Proximity Homogeneous Assay)
A non-specific kinase inhibitor (CZC-8004 Cayman #916603-07-1) bound to an acceptor bead (#6772001 PerkinElmer) was mixed to the recombinant hRIPK2 protein (kinase domain aa 1-299-His-tagged—Life Technologies PR7829A) and a Ni2+-tagged donor beads (#AS101D PerkinElmer). In the presence of an inhibitor, the compound beads displacement from hRIPK2 was followed by signal loss. In a 384-well ProxiPlate@ (Perkin Elmer, 6008280) add:
2 μL RIPK2 inhibitor (in DMSO 0.8%).
2 μL human recombinant RIPK2 (10 nM diluted in AlphaLISA buffer 1×).
4 μL Mix of […] 1/1000 in AlphaLISA buffer 1×.
Homogenize using a microtiter plate shaker and incubate for 2 h at 23° C.
Read using EnVision®-Alpha Reader (PerkinElmer) according to manufacturer specifications.

T1 sequence (O43353 1-299): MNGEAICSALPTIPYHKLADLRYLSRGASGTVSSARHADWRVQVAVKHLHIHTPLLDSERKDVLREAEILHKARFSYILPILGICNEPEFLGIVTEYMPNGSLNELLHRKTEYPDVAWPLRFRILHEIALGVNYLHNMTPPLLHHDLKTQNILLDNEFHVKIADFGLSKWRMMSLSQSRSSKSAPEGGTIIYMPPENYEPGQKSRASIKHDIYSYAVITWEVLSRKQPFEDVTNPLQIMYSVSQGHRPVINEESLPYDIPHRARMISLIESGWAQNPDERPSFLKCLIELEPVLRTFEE

CO[C@@H]1C[C@H]2COc3nc4c(cnn4cc3C)-c3cc(F)cc(c3)NCCN2C1=O [Example 30, (12R,14S)-4-fluoro-12-methoxy-18-methyl-16-oxa-7,10,20,21,24-pentaazapentacyclo[15.5.2.1^2,6.0^10,^14.0^20,^23]pentacosa-1(23),2(25),3,5,17(24),18,21-heptaen-11-one] and CO[C@@H]1C[C@H]2COc3nc4c(cnn4cc3F)-c3cc(F)cc(c3)NCCN2C1=O [Example 34, (12R,14S)-4,18-difluoro-12-methoxy-16-oxa-7,10,20,21,24-pentaazapentacyclo[15.5.2.1^2,6.0^10,^14.0^20,^23]pentacosa-1(23),2(25),3,5,17(24),18,21-heptaen-11-one] cannot be ordered by IC50: < 10 nM for the first, < 10 nM for the second.

First: COCc1cn2ncc3c2nc1OC[C@@H]1C[C@@H](OC)C(=O)N1CCNc1cc(F)cc-3c1 [Example 33, (12R,14S)-4-fluoro-12-methoxy-18-(methoxymethyl)-16-oxa-7,10,20,21,24-pentaazapentacyclo[15.5.2.1^2,6.0^10,^14.0^20,^23]pentacosa-1(23),2(25),3,5,17(24),18,21-heptaen-11-one]
Second: CO[C@@H]1C[C@H]2COc3nc4c(cnn4cc3C)-c3cc(cc(OCC4CC4)c3)NCCN2C1=O [Example 48, (12R,14S)-4-(cyclopropylmethoxy)-12-methoxy-18-methyl-16-oxa-7,10,20,21,24-pentaazapentacyclo[15.5.2.1^2,6.0^10,^14.0^20,^23]pentacosa-1(23),2,4,6(25),17(24),18,21-heptaen-11-one]
The IC50 of the first is lower: < 10 nM for the first, 100 to 11000 nM for the second.

COCCO[C@@H]1C[C@H]2COc3ccn4ncc(c4n3)-c3cc(F)cc(c3)NCCN2C1=O [Example 35, (12R,14S)-4-fluoro-12-(2-methoxyethoxy)-16-oxa-7,10,20,21,24-pentaazapentacyclo[15.5.2.1^2,6.01^0,^14.0^20,23]pentacosa-1(23),2,4,6(25),17(24),18,21-heptaen-11-one] and COCCO[C@@H]1C[C@H]2COc3ccn4ncc(c4n3)-c3cc(cc(OC)c3)NCCN2C1=O [Example 47, (12R,14S)-4-methoxy-12-(2-methoxyethoxy)-16-oxa-7,10,20,21,24-pentaazapentacyclo[15.5.2.1^2,6.0^10,^14.0^20,^23]pentacosa-1(23),2(25),3,5,17(24),18,21-heptaen-11-one] cannot be ordered by IC50: < 10 nM for the first, < 10 nM for the second.

[2H]C([2H])([2H])O[C@@H]1C[C@H]2COc3ccn4ncc(c4n3)-c3cc(F)cc(c3)NCCN2C1=O [Example 36, (12R,14S)-4-fluoro-12-(^2H3)methoxy-16-oxa-7,10,20,21,24-pentaazapentacyclo[15.5.2.1^2,6.0^10,^14.0^20,^23]pentacosa-1(23),2(25),3,5,17(24),18,21-heptaen-11-one] and [2H]C([2H])([2H])O[C@@H]1C[C@H]2COc3ccn4ncc(c4n3)-c3cc(cc(OC)c3)NCCN2C1=O [Example 37, (12R,14S)-12-(2H3)methoxy-4-methoxy-16-oxa-7,10,20,21,24-pentaazapentacyclo[15.5.2.1^2,6.0^10,^14.0^20,^23]pentacosa-1(23),2,4,6(25),17(24),18,21-heptaen-11-one] cannot be ordered by IC50: < 10 nM for the first, < 10 nM for the second.

CC(C)O[C@@H]1C[C@H]2COc3ccn4ncc(c4n3)-c3cc(Cl)cc(c3)NCCN2C1=O [Example 38, (12R,14S)-4-chloro-12-(propan-2-yloxy)-16-oxa-7,10,20,21,24-pentaazapentacyclo[15.5.2.1^2,6.0^10,^14.0^20,^23]pentacosa-1(23),2,4,6(25),17(24),18,21-heptaen-11-one] and [2H]C([2H])([2H])Oc1cc2cc(c1)-c1cnn3ccc(nc13)OC[C@@H]1C[C@@H](OC)C(=O)N1CCN2 [Example 52, (12R,14S)-4-(^2H3)methoxy-12-methoxy-16-oxa-7,10,20,21,24-pentaazapentacyclo[15.5.2.1^2,6.0^10,^14.0^20,^23]pentacosa-1(23),2,4,6(25),17(24),18,21-heptaen-11-one] cannot be ordered by IC50: < 10 nM for the first, < 10 nM for the second.

Compared with CCO[C@@H]1C[C@H]2COc3nc4c(cnn4cc3C)-c3cc(cc(OC)c3)NCCN2C1=O [Example 39, (2^3Z,2^4E,5^2S,5^4R)-5^4-ethoxy-1^5-methoxy-2^6-methyl-3-oxa-8-aza-2(3,5)-pyrazolo[1,5-a]96yrimidine-5(2,1)-pyrrolidina-1(1,3)-benzenacyclooctaphan-5^5-one], CO[C@@H]1C[C@H]2COc3nc4c(cnn4cc3C)-c3cc(cc(OCc4cnn(C)c4)c3)NCCN2C1=O [Example 51, (12R,14S)-12-methoxy-18-methyl-4-[(1-methyl-1H-pyrazol-4-yl)methoxy]-16-oxa-7,10,20,21,24-pentaazapentacyclo[15.5.2.1^2,6.0^10,^14.0^20,^23]pentacosa-1(23),2,4,6(25),17(24),18,21-heptaen-11-one] is higher in IC50: < 10 nM for the first, 100 to 11000 nM for the second.

First: CO[C@@H]1CC2(C)COc3ccn4ncc(c4n3)-c3cc(F)cc(c3)NCCN2C1=O (stereo partly drawn) [Example 40]
Second: CO[C@@H]1C[C@H]2COc3ccn4ncc(c4n3)-c3cc(cc(OCC4CC4)c3)NCCN2C1=O [Example 45, (12R,14S)-4-(cyclopropylmethoxy)-12-methoxy-16-oxa-7,10,20,21,24-pentaazapentacyclo[15.5.2.1^2,6.0^10,^14.0^20,^23]pentacosa-1(23),2,4,6(25),17(24),18,21-heptaen-11-one]
The IC50 of the first is lower: < 10 nM for the first, 100 to 11000 nM for the second. The first is the more potent here.

CO[C@@H]1C[C@H]2COc3ccn4ncc(c4n3)-c3cc(cc(-n4cccn4)c3)NCCN2C1=O [Example 41, (12R,14S)-12-methoxy-4-(1H-pyrazol-1-yl)-16-oxa-7,10,20,21,24-pentaazapentacyclo[15.5.2.1^2,6.0^10,^14.0^20,^23]pentacosa-1(23),2(25),3,5,17(24),18,21-heptaen-11-one] and CO[C@@H]1C[C@H]2COc3nc4c(cnn4cc3C)-c3cc(cc(-n4cccn4)c3)NCCN2C1=O [Example 42, (12R,14S)-12-methoxy-18-methyl-4-(1H-pyrazol-1-yl)-16-oxa-7,10,20,21,24-pentaazapentacyclo[15.5.2.1^2,6.0^10,^14.0^20,^23]pentacosa-1(23),2(25),3,5,17(24),18,21-heptaen-11-one] cannot be ordered by IC50: < 10 nM for the first, < 10 nM for the second.

First: CO[C@@H]1C[C@H]2COc3ccn4ncc(c4n3)-c3cc(cc(-n4nccc4C)c3)NCCN2C1=O [Example 43, (12R,14S)-12-methoxy-4-(5-methyl-1H-pyrazol-1-yl)-16-oxa-7,10,20,21,24-pentaazapentacyclo[15.5.2.1^2,6.0^10,^14.0^20,^23]pentacosa-1(23),2(25),3,5,17(24),18,21-heptaen-11-one]
Second: CO[C@@H]1C[C@H]2COc3ccn4ncc(c4n3)-c3cc(cc(OCc4cnn(C)c4)c3)NCCN2C1=O [Example 46, (12R,14S)-12-methoxy-4-[(1-methyl-1H-pyrazol-4-yl)methoxy]-16-oxa-7,10,20,21,24-pentaazapentacyclo[15.5.2.1^2,6.0^10,^14.0^20,^23]pentacosa-1(23),2,4,6(25),17(24),18,21-heptaen-11-one]
The IC50 of the first is lower: < 10 nM for the first, 10 to 100 nM for the second.

CO[C@@H]1C[C@H]2COc3ccn4ncc(c4n3)-c3cc(cc(OCc4cccnc4)c3)NCCN2C1=O [Example 44, (12R,14S)-12-methoxy-4-(pyridin-3-ylmethoxy)-16-oxa-7,10,20,21,24-pentaazapentacyclo[15.5.2.1^2,6.0^1°,^14.0^2°,^23]pentacosa-1 (23),2(25),3,5,17(24),18,21-heptaen-11-one] and CO[C@@H]1C[C@H]2COc3nc4c(cnn4cc3C)-c3cc(cc(OCc4cccnc4)c3)NCCN2C1=O [Example 49, (12R,14S)-12-methoxy-18-methyl-4-(pyridin-3-ylmethoxy)-16-oxa-7,10,20,21,24-pentaazapentacyclo[15.5.2.1^2,6.0^10,^14.0^20,^23]pentacosa-1(23),2,4,6(25),17(24),18,21-heptaen-11-one] fall in the same range of IC50: 10 to 100 nM for the first, 10 to 100 nM for the second.

Compared with CO[C@@H]1C[C@H]2COc3nc4c(cnn4cc3C)-c3cc(cc(OCC4CCOC4)c3)NCCN2C1=O (stereo partly drawn) [Example 50, (12R,14S)-12-methoxy-18-methyl-4-(oxolan-3-ylmethoxy)-16-oxa-7,10,20,21,24-pentaazapentacyclo[15.5.2.1^2,6.0^10,^14.0^20,^23]pentacosa-1(23),2,4,6(25),17(24),18,21-heptaen-11-one], CCN(C)C(=O)c1cc2cc(c1)-c1cnn3ccc(nc13)OC[C@@H]1C[C@@H](OC)C(=O)N1CCN2 [Example 56, (12R,14S)-N-ethyl-12-methoxy-N-methyl-11-oxo-16-oxa-7,10,20,21,24-pentaazapentacyclo[15.5.2.1^2,6.0^10,^14.0^20,^23]pentacosa-1(23),2,4,6(25),17(24),18,21-heptaene-4-carboxamide] is lower in IC50: 10 to 100 nM for the first, < 10 nM for the second.

[2H]C([2H])([2H])Oc1cc2cc(c1)-c1cnn3ccc(nc13)OC[C@@H]1C[C@@H](OC([2H])([2H])[2H])C(=O)N1CCN2 [Example 53, (12R,14S)-4,12-bis(^2H3)methoxy-16-oxa-7,10,20,21,24-pentaazapentacyclo[[15.5.2.1^2,6.0^10,^14.0^20,^23]pentacosa-1(23),2,4,6(25),17(24),18,21-heptaen-11-one] and CCO[C@@H]1C[C@H]2COc3ccn4ncc(c4n3)-c3cc(cc(C(=O)N(C)OC)c3)NCCN2C1=O [Example 57, (12R,14S)-12-ethoxy-N-methoxy-N-methyl-11-oxo-16-oxa-7,10,20,21,24-pentaazapentacyclo[15.5.2.1^2,6.0^10,^14.0^20,^23]pentacosa-1(23),2(25),3,5,17(24),18,21-heptaene-4-carboxamide] cannot be ordered by IC50: < 10 nM for the first, < 10 nM for the second.
